Laboratory results published in US20260138976A1 (Hoffmann-La Roche Inc., priority 2022, published 2026).

Test system: primary human T-cells
Assay: Proliferation assay (5 days, CellTiter-Glo, CD3-stimulated T-cells)
Format: cell-based
Conditions: for Emax proliferation (% activation): CD3 condition, normalised to DMSO (neutral) and 20 μM reference compound A1 = 100%; for EC50: Homo sapiens, T-cell, 120 h, CD3-stimulated primary human T-cells, 5 days, CellTiter-Glo, fitted sigmoidal curve, read-out: Tcell Proliferation CD3 EC50
Summary of the method: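 Expanded primary human T-cells, 100 k cells/well, were stimulated with plate-coated CD3 antibody (donor-titrated) and given compound in a 5 or 6 pt dose response from 20 μM or 10 μM final top, 0.2% DMSO final. ATP was read by CellTiter-Glo after 5 days. EC50 and Emax were reported as % of 20 μM reference compound A1.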

SMILES	Emax proliferation (% activation)	EC50
CC1(Nc2nnc(-c3cc4c(cc3F)S(=O)(=O)C[C@H](N)C(=O)N4Cc3ccc(-c4noc(C(F)(F)F)n4)cc3)o2)CC(F)(F)C1 [Example 3, (3R)-3-amino-7-[5-[(3,3-difluoro-1-methyl-cyclobutyl)amino]-1,3,4-oxadiazol-2-yl]-8-fluoro-1,1-dioxo-5-[[4-[5-(trifluoromethyl)-1,2,4-oxadiazol-3-yl]phenyl]methyl]-2,3-dihydro-1λ^6,5-benzothiazepin-4-one]	165 % activation	0.795 µM
N[C@H]1CS(=O)(=O)c2cc(F)c(-c3nnc(N4CCOC5(CC5)C4)o3)cc2N(Cc2ccc(-c3noc(C(F)(F)F)n3)cc2)C1=O [Example 4, (3R)-3-amino-8-fluoro-7-[5-(4-oxa-7-azaspiro[2.5]octan-7-yl)-1,3,4-oxadiazol-2-yl]-1,1-dioxo-5-[[4-[5-(trifluoromethyl)-1,2,4-oxadiazol-3-yl]phenyl]methyl]-2,3-dihydro-1λ^6,5-benzothiazepin-4-one]	207 % activation	0.0831 µM
N[C@H]1CS(=O)(=O)c2cc(F)c(-c3nnc(N4CCC(F)(F)CC4)o3)cc2N(Cc2ccc(-c3noc(C(F)(F)F)n3)cc2)C1=O [Example 5, (3R)-3-amino-7-[5-(4,4-difluoro-1-piperidyl)-1,3,4-oxadiazol-2-yl]-8-fluoro-1,1-dioxo-5-[[4-[5-(trifluoromethyl)-1,2,4-oxadiazol-3-yl]phenyl]methyl]-2,3-dihydro-1λ^6,5-benzothiazepin-4-one]	200 % activation	0.12 µM
COc1ccc(-c2ccc(CN3C(=O)[C@@H](N)CS(=O)(=O)c4cc(F)c(-c5noc(C6(N)COC6)n5)cc43)cc2)cc1 [Example 8, (3R)-3-amino-7-[5-(3-aminooxetan-3-yl)-1,2,4-oxadiazol-3-yl]-8-fluoro-5-[[4-(4-methoxyphenyl)phenyl]methyl]-1,1-dioxo-2,3-dihydro-1λ^6,5-benzothiazepin-4-one]	143 % activation	3.11 µM
N[C@H]1CS(=O)(=O)c2cc(F)c(-c3noc(C4(N)COC4)n3)cc2N(Cc2ccc(-c3noc(C(F)(F)F)n3)cc2)C1=O [Example 9, (3R)-3-amino-7-[5-(3-aminooxetan-3-yl)-1,2,4-oxadiazol-3-yl]-8-fluoro-1,1-dioxo-5-[[4-[5-(trifluoromethyl)-1,2,4-oxadiazol-3-yl]phenyl]methyl]-2,3-dihydro-1λ^6,5-benzothiazepin-4-one]	163 % activation	0.506 µM
N[C@H]1CS(=O)(=O)c2cc(F)c(-c3noc(C4(N)COC4)n3)cc2N(Cc2ccc(-c3ccc(C(F)(F)F)cn3)cc2)C1=O [Example 10, (3R)-3-amino-7-[5-(3-aminooxetan-3-yl)-1,2,4-oxadiazol-3-yl]-8-fluoro-1,1-dioxo-5-[[4-[5-(trifluoromethyl)-2-pyridyl]phenyl]methyl]-2,3-dihydro-1λ^6,5-benzothiazepin-4-one]	133 % activation	1.92 µM
N[C@H]1CS(=O)(=O)c2cc(F)c(-c3noc(N4CCOC5(CC5)C4)n3)cc2N(Cc2ccc(-c3ccc(C(F)(F)F)cc3)nc2)C1=O [Example 11, (3R)-3-amino-8-fluoro-7-[5-(4-oxa-7-azaspiro[2.5]octan-7-yl)-1,2,4-oxadiazol-3-yl]-1,1-dioxo-5-[[6-[4-(trifluoromethyl)phenyl]-3-pyridyl]methyl]-2,3-dihydro-1λ^6,5-benzothiazepin-4-one]	136 % activation	1.87 µM
N[C@H]1CS(=O)(=O)c2cc(F)c(-c3noc(N4CCOC(F)(F)C4)n3)cc2N(Cc2ccc(-c3noc(C(F)(F)F)n3)nc2)C1=O [Example 12, (3R)-3-amino-7-[5-(2,2-difluoromorpholin-4-yl)-1,2,4-oxadiazol-3-yl]-8-fluoro-1,1-dioxo-5-[[6-[5-(trifluoromethyl)-1,2,4-oxadiazol-3-yl]-3-pyridyl]methyl]-2,3-dihydro-1λ^6,5-benzothiazepin-4-one]	125 % activation	3.88 µM
N[C@H]1CS(=O)(=O)c2cc(F)c(-c3noc(N4CCOC(F)(F)C4)n3)cc2N(Cc2ccc(-c3ccc(C(F)(F)F)cc3)nc2)C1=O [Example 13, (3R)-3-amino-7-[5-(2,2-difluoromorpholin-4-yl)-1,2,4-oxadiazol-3-yl]-8-fluoro-1,1-dioxo-5-[[6-[4-(trifluoromethyl)phenyl]-3-pyridyl]methyl]-2,3-dihydro-1λ^6,5-benzothiazepin-4-one]	84 % activation	1.08 µM
N[C@H]1CS(=O)(=O)c2cc(F)c(-c3noc(N4CCOC5(CC5)C4)n3)cc2N(Cc2ccc(-c3noc(C(F)(F)F)n3)nc2)C1=O [Example 14, (3R)-3-amino-8-fluoro-7-[5-(4-oxa-7-azaspiro[2.5]octan-7-yl)-1,2,4-oxadiazol-3-yl]-1,1-dioxo-5-[[6-[5-(trifluoromethyl)-1,2,4-oxadiazol-3-yl]-3-pyridyl]methyl]-2,3-dihydro-1λ^6,5-benzothiazepin-4-one]	96 % activation	3.85 µM
N#CC1(c2nc(-c3cc4c(cc3F)S(=O)(=O)C[C@H](N)C(=O)N4Cc3ccc(-c4noc(C(F)(F)F)n4)cc3)no2)CC1 [Example 16, 1-[3-[(3R)-3-amino-8-fluoro-1,1,4-trioxo-5-[[4-[5-(trifluoromethyl)-1,2,4-oxadiazol-3-yl]phenyl]methyl]-2,3-dihydro-1λ^6,5-benzothiazepin-7-yl]-1,2,4-oxadiazol-5-yl]cyclopropanecarbonitrile]	228 % activation	0.115 µM
N#CC1(c2nc(-c3cc4c(cc3F)S(=O)(=O)C[C@H](N)C(=O)N4Cc3ccc(-c4ccc(C(F)(F)F)cn4)cc3)no2)CC1 [Example 17]	167 % activation	0.0501 µM
CC(C)(C)c1nnc(-c2ccc(CN3C(=O)[C@@H](N)CS(=O)(=O)c4ccc(-c5nnc(C(C)(C)C)o5)cc43)cc2)o1 [Example 19, (3R)-3-amino-7-(5-tert-butyl-1,3,4-oxadiazol-2-yl)-5-[[4-(5-tert-butyl-1,3,4-oxadiazol-2-yl)phenyl]methyl]-1,1-dioxo-2,3-dihydro-1λ^6,5-benzothiazepin-4-one]	100 % activation	3.61 µM
Cc1cc(C)n(-c2ccc(CN3C(=O)[C@@H](N)CS(=O)(=O)c4ccc(-c5nnc(C(C)(C)C)o5)cc43)cc2)n1 [Example 22, (3R)-3-amino-7-(5-tert-butyl-1,3,4-oxadiazol-2-yl)-5-[[4-(3,5-dimethylpyrazol-1-yl)phenyl]methyl]-1,1-dioxo-2,3-dihydro-1λ^6,5-benzothiazepin-4-one]	69 % activation	3.93 µM
CC(C)(C)C(N)c1nnc(-c2ccc3c(c2)N(Cc2ccc(-c4noc(C(F)(F)F)n4)cc2)C(=O)[C@@H](N)CS3(=O)=O)o1 (stereo partly drawn) [Example 34, (3R)-3-amino-7-[5-(1-amino-2,2-dimethyl-propyl)-1,3,4-oxadiazol-2-yl]-1,1-dioxo-5-[[4-[5-(trifluoromethyl)-1,2,4-oxadiazol-3-yl]phenyl]methyl]-2,3-dihydro-1λ^6,5-benzothiazepin-4-one]	67 % activation	1.18 µM
N[C@H]1CS(=O)(=O)c2ccc(-c3nnc(C4(C5CC5)CCCO4)o3)cc2N(Cc2ccc(-c3noc(C(F)(F)F)n3)cc2)C1=O (stereo partly drawn) [Example 36, (3R)-3-amino-7-[5-(2-cyclopropyl-tetrahydrofuran-2-yl)-1,3,4-oxadiazol-2-yl]-1,1-dioxo-5-[[4-[5-(trifluoromethyl)-1,2,4-oxadiazol-3-yl]phenyl]methyl]-2,3-dihydro-1λ^6,5-benzothiazepin-4-one]	108 % activation	0.0917 µM
CC(C)(C#N)c1nnc(-c2ccc3c(c2)N(Cc2ccc(-c4noc(C(F)(F)F)n4)cc2)C(=O)[C@@H](N)CS3(=O)=O)o1 [Example 38, 2-[5-[(3R)-3-amino-1,1,4-trioxo-5-[[4-[5-(trifluoromethyl)-1,2,4-oxadiazol-3-yl]phenyl]methyl]-2,3-dihydro-1λ^6,5-benzothiazepin-7-yl]-1,3,4-oxadiazol-2-yl]-2-methyl-propanenitrile]	97 % activation	0.64 µM
N[C@H]1CS(=O)(=O)c2ccc(-c3nnc(C4(N)CCCCC4)o3)cc2N(Cc2ccc(-c3ccc(C(F)(F)F)cn3)cc2)C1=O [Example 41, (3R)-3-amino-7-[5-(1-aminocyclohexyl)-1,3,4-oxadiazol-2-yl]-1,1-dioxo-5-[[4-[5-(trifluoromethyl)-2-pyridyl]phenyl]methyl]-2,3-dihydro-1λ^6,5-benzothiazepin-4-one]	85 % activation	0.902 µM
N[C@H]1CS(=O)(=O)c2ccc(-c3nnc(C4(N)CCCCC4)o3)cc2N(Cc2ccc(-c3ccc(C(F)(F)F)cc3)cc2)C1=O [Example 42, (3R)-3-amino-7-[5-(1-aminocyclohexyl)-1,3,4-oxadiazol-2-yl]-1,1-dioxo-5-[[4-[4-(trifluoromethyl)phenyl]phenyl]methyl]-2,3-dihydro-1λ^6,5-benzothiazepin-4-one]	66 % activation	0.123 µM
COc1ccc(-c2ccc(CN3C(=O)[C@@H](N)CS(=O)(=O)c4ccc(-c5nnc(C6(N)CCCCC6)o5)cc43)cc2)cc1 [Example 43, (3R)-3-amino-7-[5-(1-aminocyclohexyl)-1,3,4-oxadiazol-2-yl]-5-[[4-(4-methoxyphenyl)phenyl]methyl]-1,1-dioxo-2,3-dihydro-1λ^6,5-benzothiazepin-4-one]	64 % activation	0.284 µM
